{"source": "patent US20110191876A1", "about": "“GLYPHOSATE TOLERANT PERENNIAL RYEGRASS NAMED 'JACKLIN 501'” (J.R. SIMPLOT COMPANY, priority 2009, published 2011)", "test_system": "perennial ryegrass 96-3047", "experiment": "glyphosate applied at termination of the Maryland turf trial, plot survival", "format": "in vivo, Lolium perenne L.", "details": "perennial ryegrass 96-3047 plot, Maryland trial 1999, glyphosate at 2-quarts per acre; only plot not killed", "description": "In 1999, during the termination of the Maryland trial, 96-3047 was the only plot in the trial that was not killed when glyphosate at the rate of 2-quarts per acre was applied. Survival in the plot was estimated at 30% and plugs were pulled, coded as 99-0089, and 200 plants of 99-0089 were planted in an isolation block in the 1999 Post Falls, Id. nursery."}
{"smiles": "O=C(O)CNCP(=O)(O)O", "note": "[glyphosate, N-(phosphonomethyl) glycine]", "values": [{"measurement": "Survival in the plot", "value": "~30", "unit": "%"}]}
